Assay results taken from PMC11632778, “Adaptive Synthesis, Supramolecular Behavior, and Biological Properties of Amphiphilic Carbosilane-Phosphonium Dendrons with Tunable Structure” (Biomacromolecules, 2024).

Columns and labels:
[1] = Dynamic light scattering (DLS/MADLS) of micelles in physiological solution; type: physicochemical
Method: The size of micelles and micellar aggregates was estimated by the dynamic light scattering (DLS) method using NanoBrook OMNI ZetaPALS (Brookhaven Instruments, USA) with a detection angle 90° and 640 nm laser. The presented diameters are mean values from the intensity-weighted size distribution. The composition of the samples was as follows: dendron (1.0 mM) and NaCl (0.9%) in deionized water. The solutions were sonicated for 30 min, filtered through 0.45 μm Nylon syringe filters (Avantor, USA), placed in standard polystyrene cuvettes (BI-SCP, Brookhaven Instruments), and stored at 4 °C. All measurements were conducted at 25 °C. Measurement time was set to 5 min, and each measurement was repeated 5 times. The analysis of data was performed using Brookhaven Instruments software Particle Solutions v3.6.07136.
MADLS and size dependence on concentration and pH were measured on Zetasizer Ultra Red (Malvern Panalytical, UK) equipped with a 632.8 nm laser, applying detection angles 12.78°, 90°, and 174.7° in the case of MADLS measurements and 12.78° for size dependence measurements. MADLS and concentration dependence were measured in DTS0012 polystyrene cuvettes (Malvern Panalytical, UK); pH dependence was studied by acidobasic titration in DTS1070 folded capillary Zeta cell, using MPT-3 Multipurpose Titrator and DEG0003 Auto Degasser (all Malvern Panalytical, UK). The concentration dependence measurement started at 1.0 mM and the samples were diluted 2-fold until the minimum concentration 0.06 mM. For each concentration, the measurement was repeated 3 times giving 15 measurements in total. The pH dependence measurement started at pH 12; the titration was performed with a step of 2 and at each step, the measurement was repeated 3 times, giving 18 measurements in total. Malvern Panalytical software ZS Xplorer version 3.3.1.5 was used for the analysis of data.

[2] = system: anti-miR-21 oligo(2′-O-methylribonucleotide); test: DLS of dendriplexes with anti-miR-21 oligonucleotide; type: physicochemical; settings: for mean diameter of dendriplex: 0.9% NaCl
Method: Dendriplexes were characterized by DLS using Zetasizer Nano-S (Malvern Panalytical, UK) equipped with a 632.8 nm laser, applying detection angle 173°. Mean diameters from the intensity-weighted size distribution are given. Average results from three consecutive sets of measurements generated by Malvern Zetasizer Software version 7.13 are presented.
Amphiphilic dendrons (1.5–73 μM) were mixed with the anti-miR-21:5′-m([…]) (500 nM) in 0.9% NaCl solution in milli-Q water. The dendrons’ concentrations were chosen to attain the charge ratio (CR, the ratio of cations over anions in the sample) of 1.2, 2.5, 5, 10, or 20. The samples were incubated for 15 min at rt prior to measurements.

[3] = system: E. coli—clinical isolate A1235; test: Microdilution broth MIC; type: cell-based; settings: Escherichia coli, 24 h
Method: (§1) In vitro antibacterial activity of the prepared amp-DDNs (DnP6-1C12, DnP3-1C12, DnP3-2C12, and DnP3-2C18) was tested on a panel of four G+ (Staphylococcus aureus CCM 4516, methicillin-resistant S. aureus clinical isolate C1923, Staphylococcus epidermidis clinical isolate C1936, and vancomycin-resistant Enterococcus faecium clinical isolate S2484) and four G-bacterial strains (Escherichia coli K12, CCM 7929, E. coli clinical isolate A1235, extended-spectrum β-lactamase-producing (ESBL+) Klebsiella pneumoniae clinical isolate C1914, and multiresistant Pseudomonas aeruginosa clinical isolate A1245). CCM collection strains were obtained from the Czech Collection of Microorganisms. All clinical isolates were obtained during routine procedures in the clinical laboratory at the University Hospital Hradec Králové. All strains were stored at −70 °C in the Cryobank according to the manufacturer’s instructions. Subsequently, when needed, each bacterial strain was inoculated and cultivated on Mueller–Hinton agar (HiMedia, Cadersky-Envitek, Prague, Czech Republic).
(§2) The antibacterial susceptibility was determined by a microdilution broth method according to standard M07-A10,[55] and the optimized protocol has been published previously.[56],[57] Briefly, Mueller–Hinton broth (MHB) adjusted to pH 7.4 (±0.2) was used as the test medium. […] The wells of the microdilution tray contained 200 μL of the MHB with 2-fold serial dilutions of the compounds and were inoculated with 10 μL of the bacterial suspension. The bacterial suspensions were controlled densitometrically to reach 1.5 × 10^8 viable CFU per 1 mL. The minimum inhibitory concentration (MIC) values, defined as 95% inhibition of bacterial growth, were determined after 24 h of incubation at 35 °C ± 1 °C.

[4] = system: E. faecium VRE—clinical isolate S2484; test: Microdilution broth MIC; type: cell-based; settings: Enterococcus faecium, 24 h
Method: as §1, §2

[5] = system: K. pneumoniae ESBL+—clinical isolate C1914; test: Microdilution broth MIC; type: cell-based; settings: Klebsiella pneumoniae, 24 h
Method: as §1, §2

[6] = system: P. aeruginosa MR—clinical isolate A1245; test: Microdilution broth MIC; type: cell-based; settings: Pseudomonas aeruginosa, 24 h
Method: as §1, §2

[7] = system: S. aureus CCM 4516; test: Microdilution broth MIC; type: cell-based; settings: Staphylococcus aureus, CCM4516, 24 h
Method: as §1, §2

[8] = system: E. coli K12, CCM 7929; test: Microdilution broth MIC; type: cell-based; settings: Escherichia coli, CCM7929, 24 h
Method: as §1, §2

[9] = system: S. epidermidis—clinical isolate C1936; test: Microdilution broth MIC; type: cell-based; settings: Staphylococcus epidermidis, 24 h
Method: as §1, §2

[10] = system: S. aureus MRSA—clinical isolate C1926; test: Microdilution broth MIC; type: cell-based; settings: Staphylococcus aureus, 24 h
[11] = parameters: method as in doi:10.1016/j.colsurfa.2004.10.066; settings: standard cationic surfactant; cited from earlier work

Row | Compound | PI of dendriplex ([2]; CR 1.2) | mean diameter of dendriplex ([2]; CR 1.2, anti-miR-21 500 nM) | PI of dendriplex ([2]; CR 2.5) | mean diameter of dendriplex ([2]; CR 2.5, anti-miR-21 500 nM) | PI of dendriplex ([2]; CR 5) | mean diameter of dendriplex ([2]; CR 5, anti-miR-21 500 nM) | PI of dendriplex ([2]; CR 10) | mean diameter of dendriplex ([2]; CR 10, anti-miR-21 500 nM) | MIC [3] | MIC [4] | MIC [5] | MIC [6] | MIC [7] | MIC [8] | MIC [9] | MIC [10] | further results
1 | CCCCCCCCCCCCCCCCCCNC(=O)c1cc(OCCC[Si](CCCSCC(=O)NCCC[P+](c2ccccc2)(c2ccccc2)c2ccccc2)(CCCSCC(=O)NCCC[P+](c2ccccc2)(c2ccccc2)c2ccccc2)CCCSCC(=O)NCCC[P+](c2ccccc2)(c2ccccc2)c2ccccc2)cc(C(=O)NCCCCCCCCCCCCCCCCCC)c1 [DnP3-2C18] | 0.12 | 0.20 μm | 0.2 | 0.9 μm | 0.3 | > 1 μm | 0.23 | 0.22 μm | > 12.5 µM | > 12.5 µM | > 12.5 µM | > 12.5 µM | > 12.5 µM | > 12.5 µM | > 12.5 µM | > 12.5 µM | PDI ([1]; 1.0 mM dendron, 0.9% NaCl): ≈ 0.2; mean size (DLS, intensity-weighted) ([1]; 1.0 mM dendron, 0.9% NaCl, 25 °C, start of testing period): 14 nm; mean size (DLS, intensity-weighted) ([1]; 1.0 mM dendron, 0.9% NaCl, after 75 day testing period, stored at 4 °C): 26 nm; mean size of the second population (MADLS) ([1]; aggregates): 80 nm; mean diameter of the smaller particles (MADLS) ([1]; isolated micelles): 11.8 nm; PI of dendriplex ([2]; CR 20): 0.29; mean diameter of dendriplex ([2]; CR 20, anti-miR-21 500 nM): 0.17 μm
2 | CCCCCCCCCCCCNC(=O)c1cc(OCCC[Si](CCCSCC(=O)NCCC[P+](c2ccccc2)(c2ccccc2)c2ccccc2)(CCCSCC(=O)NCCC[P+](c2ccccc2)(c2ccccc2)c2ccccc2)CCCSCC(=O)NCCC[P+](c2ccccc2)(c2ccccc2)c2ccccc2)cc(OCCC[Si](CCCSCC(=O)NCCC[P+](c2ccccc2)(c2ccccc2)c2ccccc2)(CCCSCC(=O)NCCC[P+](c2ccccc2)(c2ccccc2)c2ccccc2)CCCSCC(=O)NCCC[P+](c2ccccc2)(c2ccccc2)c2ccccc2)c1 [DnP6-1C12] | 0.08 | 0.22 μm | 0.2 | 0.8 μm | 0.10 | 0.8 μm | 0.05 | 0.8 μm | 6.25 µM | 3.13 µM | 12.5 µM | ≥ 12.5 µM | 6.25 µM | 6.25 µM | 1.56 µM | 6.25 µM | –
3 | CCCCCCCCCCCCCCCCCCNC(=O)c1cc(OCCC[Si](CCCSCC(=O)NCCC[P+](c2ccccc2)(c2ccccc2)c2ccccc2)(CCCSCC(=O)NCCC[P+](c2ccccc2)(c2ccccc2)c2ccccc2)CCCSCC(=O)NCCC[P+](c2ccccc2)(c2ccccc2)c2ccccc2)cc(OCCC[Si](CCCSCC(=O)NCCC[P+](c2ccccc2)(c2ccccc2)c2ccccc2)(CCCSCC(=O)NCCC[P+](c2ccccc2)(c2ccccc2)c2ccccc2)CCCSCC(=O)NCCC[P+](c2ccccc2)(c2ccccc2)c2ccccc2)c1 [DnP6-1C18] | 0.05 | 0.18 μm | 0.3 | > 1 μm | 0.3 | > 1 μm | 0.3 | > 1 μm | > 6.25 µM | 6.25 µM | > 6.25 µM | > 6.25 µM | 6.25 µM | > 6.25 µM | 6.25 µM | 6.25 µM | –
4 | CCCCCCCCCCCCCCCC[N+](C)(C)C [cetyltrimethylammonium bromide] | – | – | – | – | – | – | – | – | – | – | – | – | – | – | – | – | CMC [11]: around 1 mM
